For this assay, the system named is MC-38-hPD-L1 tumor cells. The experiment in a line: Anti-tumor efficacy in MC-38-hPD-L1 models. Particulars: MC-38-hPD-L1, C57BL/6-hPD-1 mice; 20 mg/kg, IP, BIW; 19 days. It is filed as in vivo. The procedure: Materials required for the experiment: Antibody: PD-L1 antibody Durvalumab, Product specifications: 120 mg/2.4 mL(50 mg/mL), Lot No.: 041E17C, Manufacture: AstraZeneca, purchased from Hongkong Mingchuang Medical Limited, storage at 2-8° C. Experimental animal: 120 C57BL/6-hPD-1 mice, female, 6˜8 weeks old, 18˜21 g, purchased from Jiangsu Gem Pharmatech Co. Ltd. Formulation material: castor oil (Cremophor RH40), CAS No.: 61788-85-0, Lot No.: 29761847G0, purchased from Shanghai Xietai Chemical Co. Ltd.; β-cyclodextrin (SBE-β-CD), CAS No.: 128446-35-5, Lot No.: R1804474, purchased from Shanghai Shaoyuan Chemical Co. Ltd.; DMEM culture medium, CAS No.: 11995-065, Lot No.: 2025378, purchased from Gibco Co. Ltd.; PBS, Art. No.: SH30256.01, Lot No.: AB10141338, purchased from HyClone Co. Ltd.; Fetal bovine serum: CAS No.: 10099-141, Lot No.: 1966174C, purchased from Gibco Co. Ltd.; hygromycinB: CAS No.: 10687010, Lot No.: HY069-L12 purchased from Invitrogen.
Cell culture: The MC-38 tumor cells (NCI) were maintained in vitro as a monolayer culture in DMEM medium supplemented with 10% heat inactivated fetal bovine serum, 100 μg/mL hygromycinB at 37° C. in an atmosphere of 5% CO2 in air. The tumor cells were routinely subcultured three times weekly by trypsin-EDTA treatment. The cells growing to a confluency around 70%-80% were harvested and counted for tumor inoculation.
Tumor cell inoculation and group administration: The 100 uL cell suspension containing 1×10^6 MC-38-hPD-L1 tumor cells (cells suspended in base DMEM medium) was inoculated into right dorsal subcutaneous area in mice. 6 days after inoculation, 60 tumor-bearing mice with transplanted tumors ranging from 31.49 mm^3 to 110.26 mm^3 were selected, stratified randomization was used to group and start the administration on the day of grouping.
Preparation of test substances: Preparation of formulation: 800 mL of sterile water was added into the volumetric flask with magnetic stirring to have a vortex. 100 g of castor oil (Cremophor RH40) was added with a spoon slowly into the vortex and the solution was kept stirring. 200 g of β-cyclodextrin (SBE-β-CD) was added while the solution was kept stirring until the solution was clear, and the total volume was set to 1000 mL, which contained 10% (w/v) Cremophor RH40+20% (w/v) an aqueous solution of SBE-β-CD.
Preparation of Compound Suspension: 150.92 mg compound was weighed and 12.5 mL 10% (w/v) Cremophor RH40+20% (w/v) SBE-β-CD aqueous solution were added. The suspension solution with a concentration of 12.0 mg/mL was obtained by vortex for 2 minutes and ultrasound for 30 minutes. 5.0 mL of the compound suspension solution with concentration of 12.0 mg/mL was pipetted and 5.0 mL aqueous formulation solution was added. The suspension solution with a concentration of 6.0 mg/mL was obtained by vortex for 1 minute and sonicated by ultrasound for 5 minutes. 2.0 mL of the compound suspension solution with concentration of 6.0 mg/mL was pipetted and […] was added. The suspension solution with a concentration of 3.0 mg/mL was obtained by vortex for 1 minute and sonicated by ultrasound for 5 minutes. Compound suspension solution was prepared once a day.
Preparation of hPD-L1 antibody: 0.12 mL PD-L1 antibody Durvalumab (50 mg/mL) original solution was pipetted and divided into […] in 5 mL sterile centrifugal tube, which were packed with each containing 6.0 mg. They were stored in refrigerator at 4° C. Before administration, a raw solution containing 0.12 mL and 50 mg/mL was taken, and 2.88 mL 0.9% sodium chloride solution was added to make the solution thoroughly mixed. 3 mL Duvalumab solution with the concentration 2 mg/mL was obtained.
Procedure: The mice in the vehicle group were weighed and recorded in the electronic balance according to their numbers. […]

Durvalumab [reference compound]: the TGI (as a rule, how far tumour growth fell short of that in controls) is 48.17% and the “Tumor Volume” value stood at 341.19 ± 56.59 mm^3.

Source of the values: patent US20220313626A1, “SMALL MOLECULE INHIBITORS FOR TREATING CANCER IN A SUBJECT HAVING TUMORS WITH HIGH INTERSTITIAL PRESSURE” (GUANGZHOU MAXINOVEL PHARMACEUTICALS CO., LTD., priority 2019, published 2022).
